Converted amounts (≈) assume the structure as drawn.
What was measured:
Haemophilus influenzae = test: In vitro antibacterial activity against Haemophilus influenzae A 21515; assay type: functional
Streptococcus pneumoniae = test: In vitro antibacterial activity against Streptococcus pneumoniae A 9585; assay type: functional
Pseudomonas aeruginosa = test: Compound was tested in vitro for its antibacterial activity (minimum inhibitory concentration, MIC) against Pseudomonas aeruginosa A 9843; assay type: functional
Serratia marcescens = test: In vitro antibacterial activity (minimum inhibitory concentration) against Serratia marcescens A 20019.; assay type: functional
Staphylococcus aureus [1] = test: In vitro antibacterial activity against Staphylococcus aureus A 24227; assay type: functional
Klebsiella pneumoniae = test: In vitro antibacterial activity against Klebsiella pneumoniae A 9664; assay type: functional
Enterobacter cloacae = test: In vitro antibacterial activity against Enterobacter cloacae A 9656; assay type: functional
Morganella morganii = test: In vitro antibacterial activity against Morganella morganii A 15153; assay type: functional
Escherichia coli = test: In vitro antibacterial activity against Escherichia coli A 15119; assay type: functional
Enterococcus faecalis = test: In vitro antibacterial activity against Enterococcus faecalis A 9809; assay type: functional
Staphylococcus aureus [2] = test: In vitro antibacterial activity (minimum inhibitory concentration, MIC) against Staphylococcus aureus A 9537.; assay type: functional
Proteus mirabilis = test: In vitro antibacterial activity (minimum inhibitory concentration, MIC) against Proteus mirabilis A 9900; assay type: functional
Bacteroides fragilis = test: Compound was tested in vitro for its antibacterial activity (minimum inhibitory concentration) against Bacteroides fragilis A 22862.; assay type: functional; details: A22862

SMILES | MIC (Haemophilus influenzae) | MIC (Streptococcus pneumoniae) | MIC (Pseudomonas aeruginosa) | MIC (Serratia marcescens) | MIC (Staphylococcus aureus [1]) | MIC (Klebsiella pneumoniae) | MIC (Enterobacter cloacae) | MIC (Morganella morganii) | MIC (Escherichia coli) | MIC (Enterococcus faecalis) | MIC (Staphylococcus aureus [2]) | MIC (Proteus mirabilis) | MIC (Bacteroides fragilis) | S
CC(CF)(CF)n1cc(C(=O)O)c(=O)c2cc(F)c(N3CC[C@H](N)C3)nc21.CS(=O)(=O)O | 0.25 µg/mL | 16 µg/mL | 8 µg/mL | 2 µg/mL | 4 µg/mL | 2 µg/mL | 0.5 µg/mL | 0.5 µg/mL | 0.5 µg/mL | 16 µg/mL | 8 µg/mL | 4 µg/mL | 125 µg/mL | –
CS(=O)(=O)O.C[C@H]1C[C@H](N)CN1c1cc2c(cc1F)c(=O)c(C(=O)O)cn2C(C)(C)CF | 0.016 µg/mL | 0.25 µg/mL | 1 µg/mL | 0.25 µg/mL | 0.03 µg/mL | 0.13 µg/mL | 0.06 µg/mL | 0.5 µg/mL | 0.03 µg/mL | 0.25 µg/mL | 0.03 µg/mL | 0.13 µg/mL | 4 µg/mL | –
C[C@H]1CN(c2cc3c(cc2F)c(=O)c(C(=O)O)cn3C(C)(C)CF)C[C@@H]1N | 0.008 µg/mL (≈ 0.0211 µM) | 0.25 µg/mL (≈ 0.659 µM) | 0.5 µg/mL (≈ 1.32 µM) | 0.13 µg/mL (≈ 0.343 µM) | 0.06 µg/mL (≈ 0.158 µM) | 0.13 µg/mL (≈ 0.343 µM) | 0.03 µg/mL (≈ 0.0791 µM) | 0.06 µg/mL (≈ 0.158 µM) | 0.008 µg/mL (≈ 0.0211 µM) | 0.25 µg/mL (≈ 0.659 µM) | 0.03 µg/mL (≈ 0.0791 µM) | 0.06 µg/mL (≈ 0.158 µM) | 4 µg/mL (≈ 10.5 µM) | –
CC(C)(C)n1cc(C(=O)O)c(=O)c2cc(F)c(N3CCNCC3)cc21 | – | – | 0.5 µg/mL (≈ 1.44 µM) | 0.5 µg/mL (≈ 1.44 µM) | – | 0.06 µg/mL (≈ 0.173 µM) | 0.13 µg/mL (≈ 0.374 µM) | 0.25 µg/mL (≈ 0.72 µM) | 0.06 µg/mL (≈ 0.173 µM) | 2 µg/mL (≈ 5.76 µM) | 0.25 µg/mL (≈ 0.72 µM) | 0.25 µg/mL (≈ 0.72 µM) | – | 130 µg/mL
CC(CF)(CF)n1cc(C(=O)O)c(=O)c2cc(F)c(N3CC[C@H](N)C3)cc21.CS(=O)(=O)O | 0.001 µg/mL | 0.5 µg/mL | 0.25 µg/mL | 0.13 µg/mL | 0.13 µg/mL | 0.13 µg/mL | 0.06 µg/mL | 0.016 µg/mL | 0.008 µg/mL | 0.5 µg/mL | 0.06 µg/mL | 0.03 µg/mL | 4 µg/mL | –
CC(CF)(CF)n1cc(C(=O)O)c(=O)c2cc(F)c(N3CCNCC3)nc21.Cl | 0.25 µg/mL | 16 µg/mL | 4 µg/mL | 0.5 µg/mL | 4 µg/mL | 0.25 µg/mL | 0.25 µg/mL | 0.13 µg/mL | 0.13 µg/mL | 16 µg/mL | 4 µg/mL | 1 µg/mL | 125 µg/mL | –
CC(CF)(CF)n1cc(C(=O)O)c(=O)c2cc(F)c(N3CCNCC3)cc21.Cl | 0.06 µg/mL | 8 µg/mL | 1 µg/mL | 0.5 µg/mL | 2 µg/mL | 0.13 µg/mL | 0.25 µg/mL | 0.06 µg/mL | 0.13 µg/mL | 1 µg/mL | 1 µg/mL | 0.13 µg/mL | 16 µg/mL | –
CC(C)(CF)n1cc(C(=O)O)c(=O)c2cc(F)c(N3CCNCC3)cc21.Cl | 0.016 µg/mL | 1 µg/mL | 0.25 µg/mL | 0.06 µg/mL | 0.06 µg/mL | 0.016 µg/mL | 0.03 µg/mL | 0.016 µg/mL | 0.016 µg/mL | 0.25 µg/mL | 0.13 µg/mL | 0.03 µg/mL | 8 µg/mL | –
C[C@H]1C[C@H](N)CN1c1nc2c(cc1F)c(=O)c(C(=O)O)cn2C(CF)(CF)CF.Cl | 0.5 µg/mL | 8 µg/mL | 32 µg/mL | 2 µg/mL | 1 µg/mL | 2 µg/mL | 1 µg/mL | 2 µg/mL | 0.5 µg/mL | 4 µg/mL | 0.5 µg/mL | 4 µg/mL | 125 µg/mL | –
Cl.O=C(O)c1cn(C(CF)(CF)CF)c2nc(N3CCNCC3)c(F)cc2c1=O | 0.5 µg/mL | 32 µg/mL | 16 µg/mL | 1 µg/mL | 8 µg/mL | 1 µg/mL | 0.5 µg/mL | 0.5 µg/mL | 0.5 µg/mL | 16 µg/mL | 8 µg/mL | 2 µg/mL | 125 µg/mL | –
Cl.N[C@H]1CCN(c2nc3c(cc2F)c(=O)c(C(=O)O)cn3C(CF)(CF)CF)C1 | 0.25 µg/mL | 32 µg/mL | 32 µg/mL | 2 µg/mL | 8 µg/mL | 2 µg/mL | 2 µg/mL | 2 µg/mL | 0.5 µg/mL | 32 µg/mL | 4 µg/mL | 2 µg/mL | 125 µg/mL | –
CC(C)(CF)n1cc(C(=O)O)c(=O)c2cc(F)c(N3C[C@H]4CC3CN4)cc21.Cl | 0.008 µg/mL | 1 µg/mL | 0.25 µg/mL | 0.13 µg/mL | 0.25 µg/mL | 0.06 µg/mL | 0.06 µg/mL | 0.13 µg/mL | 0.016 µg/mL | 0.5 µg/mL | 0.5 µg/mL | 0.06 µg/mL | 8 µg/mL | –
CC(C)(CF)n1cc(C(=O)O)c(=O)c2cc(F)c(N3CC[C@H](N)C3)nc21.Cl | 0.5 µg/mL | 0.03 µg/mL | 1 µg/mL | 0.25 µg/mL | 0.13 µg/mL | 0.03 µg/mL | 0.13 µg/mL | 0.06 µg/mL | 0.03 µg/mL | 4 µg/mL | 0.03 µg/mL | 0.5 µg/mL | 16 µg/mL | –
CC(C)(CF)n1cc(C(=O)O)c(=O)c2cc(F)c(N3CC(N)C3)cc21.Cl | 0.06 µg/mL | 1 µg/mL | 0.5 µg/mL | 0.13 µg/mL | 0.016 µg/mL | 0.016 µg/mL | 0.06 µg/mL | 0.016 µg/mL | 0.004 µg/mL | 0.5 µg/mL | 0.016 µg/mL | 0.06 µg/mL | 2 µg/mL | –
CC(CF)(CF)n1cc(C(=O)O)c(=O)c2cc(F)c(N3CC4C[C@@H]3CN4)nc21.Cl | 0.016 µg/mL | 8 µg/mL | 1 µg/mL | 0.5 µg/mL | 2 µg/mL | 0.5 µg/mL | 0.13 µg/mL | 0.13 µg/mL | 0.13 µg/mL | 4 µg/mL | 2 µg/mL | 0.5 µg/mL | 32 µg/mL | –
C[C@H]1C[C@H](N)CN1c1nc2c(cc1F)c(=O)c(C(=O)O)cn2C(C)(C)CF.Cl | 0.016 µg/mL | 0.13 µg/mL | 1 µg/mL | 0.13 µg/mL | 0.008 µg/mL | 0.06 µg/mL | 0.06 µg/mL | 0.13 µg/mL | 0.016 µg/mL | 0.13 µg/mL | 0.008 µg/mL | 0.13 µg/mL | 16 µg/mL | –

— ChEMBL document CHEMBL1125733, “Fluoronaphthyridines and -quinolones as antibacterial agents. 3. Synthesis and structure-activity relationships of new 1-(1,1-dimethyl-2-fluoroethyl), 1-[1-methyl-1-(fluoromethyl)-2-fluoroethyl], and 1-[1,1-(difluoromethyl)-2-fluoroethyl] substituted derivatives” (J Med Chem, 1991)
